Active and inactive are the calls of the source.
How the values were obtained:
Format in all cases: functional
[1] = SAR analysis of small molecule activators of Apaf-1 using a LZ-Caspase-9/Caspase-3 Fluorescent Selectivity assay - Set 2.; settings: read-out: EC50_Mean
[2] = molecular target: Apoptotic protease-activating factor 1 (Homo sapiens, UniProt O14727); test: SAR analysis of small molecule Activators of Apaf-1 in a Fluorescent assay - set 2.; settings: read-out: EC50_Mean
[3] = molecular target: T1, Neuropeptides B/W receptor type 1 (Homo sapiens, UniProt P48145); test: human NPBW1 receptor blockade, IC50 – cell-based, fluorescence, dose response, set 5, late-stage follow-up (AID 588566)
T1 sequence (P48145 whole entry): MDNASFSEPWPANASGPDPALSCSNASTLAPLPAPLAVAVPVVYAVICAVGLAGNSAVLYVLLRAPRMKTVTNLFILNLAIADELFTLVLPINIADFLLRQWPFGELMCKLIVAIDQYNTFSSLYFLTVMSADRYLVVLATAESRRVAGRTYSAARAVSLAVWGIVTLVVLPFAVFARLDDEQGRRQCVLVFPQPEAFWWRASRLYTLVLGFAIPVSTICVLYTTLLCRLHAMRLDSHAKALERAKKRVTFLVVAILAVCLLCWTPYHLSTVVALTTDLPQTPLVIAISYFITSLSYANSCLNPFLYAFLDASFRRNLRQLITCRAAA

[4] = molecular target: Melanin-concentrating hormone receptor 1 (Homo sapiens, UniProt Q99705); test: Late-stage fluorescence-based counterscreen for antagonists of the G-protein coupled receptor 7 (GPR7): cell-based dose response assay to identify antagonists of the melanin-concentrating hormone receptor 1 (MCHR1) Set 5.
Sequence of Melanin-concentrating hormone receptor 1 (Q99705 whole entry): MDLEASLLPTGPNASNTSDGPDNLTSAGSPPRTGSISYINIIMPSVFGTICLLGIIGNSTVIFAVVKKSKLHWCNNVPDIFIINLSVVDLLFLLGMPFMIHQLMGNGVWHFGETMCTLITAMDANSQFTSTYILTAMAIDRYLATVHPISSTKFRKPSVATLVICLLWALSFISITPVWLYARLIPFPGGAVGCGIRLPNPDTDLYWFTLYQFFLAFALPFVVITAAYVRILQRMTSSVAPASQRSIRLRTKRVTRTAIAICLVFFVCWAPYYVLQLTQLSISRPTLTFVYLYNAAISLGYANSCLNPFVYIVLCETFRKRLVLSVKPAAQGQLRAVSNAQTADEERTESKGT

Sequence of Apoptotic protease-activating factor 1 (O14727 whole entry): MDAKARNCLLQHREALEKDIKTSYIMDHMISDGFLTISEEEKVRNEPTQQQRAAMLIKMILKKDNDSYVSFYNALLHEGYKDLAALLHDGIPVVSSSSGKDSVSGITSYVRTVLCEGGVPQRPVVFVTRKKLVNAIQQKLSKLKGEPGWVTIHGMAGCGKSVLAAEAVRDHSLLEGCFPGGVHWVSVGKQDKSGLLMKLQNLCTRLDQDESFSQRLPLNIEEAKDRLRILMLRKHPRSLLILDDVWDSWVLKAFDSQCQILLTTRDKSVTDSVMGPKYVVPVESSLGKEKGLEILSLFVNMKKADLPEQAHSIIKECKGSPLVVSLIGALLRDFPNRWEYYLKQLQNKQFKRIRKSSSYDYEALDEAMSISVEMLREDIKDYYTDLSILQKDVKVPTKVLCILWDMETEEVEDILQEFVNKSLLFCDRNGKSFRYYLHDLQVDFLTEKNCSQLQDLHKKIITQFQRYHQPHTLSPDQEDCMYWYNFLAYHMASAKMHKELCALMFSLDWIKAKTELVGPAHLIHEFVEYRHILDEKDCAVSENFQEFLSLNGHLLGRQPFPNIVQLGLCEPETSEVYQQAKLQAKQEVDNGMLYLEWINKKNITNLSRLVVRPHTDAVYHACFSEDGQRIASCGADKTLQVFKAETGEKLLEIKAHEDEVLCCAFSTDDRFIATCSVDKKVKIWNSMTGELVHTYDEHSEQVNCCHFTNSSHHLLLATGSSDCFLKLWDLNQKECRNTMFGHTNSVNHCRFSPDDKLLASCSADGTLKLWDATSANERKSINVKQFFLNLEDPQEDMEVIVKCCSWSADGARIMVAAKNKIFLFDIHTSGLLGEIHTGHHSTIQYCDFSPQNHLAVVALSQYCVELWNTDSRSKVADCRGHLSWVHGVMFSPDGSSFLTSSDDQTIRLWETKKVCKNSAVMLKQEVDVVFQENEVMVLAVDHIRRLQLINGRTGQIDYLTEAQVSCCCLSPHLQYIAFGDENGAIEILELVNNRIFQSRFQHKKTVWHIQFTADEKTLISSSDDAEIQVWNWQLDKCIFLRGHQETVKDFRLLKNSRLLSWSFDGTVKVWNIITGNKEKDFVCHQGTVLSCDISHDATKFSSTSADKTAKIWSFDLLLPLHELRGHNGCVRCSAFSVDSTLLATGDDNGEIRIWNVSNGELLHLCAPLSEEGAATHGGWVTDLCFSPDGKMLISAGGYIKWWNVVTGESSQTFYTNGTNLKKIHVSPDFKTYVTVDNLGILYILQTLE

SMILES	EC50 [1]	EC50 [2]	IC50 [3]	IC50 [4]
Cc1nc2ccccc2n1CC(C)C(=O)O (centres undefined)	> 100 µM (inactive)	94.1 µM (active)		
N#CC(c1ccccc1)c1cnn(Cc2cccc3ccccc23)c(=O)c1Br (centres undefined)			~0.227 µM (active)	> 20 µM (inactive)
